# Tested on: cytopathogenic HCV variant C-13
# Experiment: Antiviral activity in pig embryonic kidney cell (SPEV) cultures infected with HCV
# Description: Infectious HCV doses used were equal to 10.0 tissue cytopathogenic doses (TCID50)/20 μL.
# The used primary fibroblasts highly sensitive to cytopathogenic action of HCV were obtained after trypsinization of 9-day-old chick embryos (FEC), and the used pig embryonic kidney cell (SPEV) cultures were obtained from the Collection of Cell Cultures of the Institute of Virology RAMS. They were used in the form of a one-day cell monolayer grown in 24-well plastic plates. The SPEV and FEC cell cultures were cultured in medium 199 with 10% fetal calf serum, supplemented with glutamine and antibiotics (100 U/ml).
# To study the antiviral activity of the drug, a 50 μL of a solution thereof taken in various dilutions were added to the FEC cultures at the time of infection, 24 hours before and 24 hours after infection of the cells.
# The infectious activity of HCV was assessed according to the results of titration of fluid samples in the SPEV cell cultures, wherein the culture fluids were derived from the HCV-infected FEC or SPEV cultures on 2 and 5 days after infection. The results were usually registered 6 or 7 days after infection, when the viral cytopathic effect reached its maximum, using the Reed and Muench formula to determine HCV titers.
# Samples of the culture medium were taken on Day 3, Day 4 and Day 5 after infection and titrated in fresh SPEV cell cultures.
structure (smiles),measurement,setting,value
O=C(O)CCCC(=O)NCCc1c[nH]cn1 [glutaryl histamine],HCV titers (lg TCID50 for SPEV cell cultures) in medium samples,"SPEV, Day 3, 0.005 μg/mL, treatment 24 hours after infection",0 lg TCID50
same,HCV titers (lg TCID50 for SPEV cell cultures) in medium samples,"SPEV, Day 3, 0.005 μg/mL, treatment 24 hours before infection",3.0 lg TCID50
same,HCV titers (lg TCID50 for SPEV cell cultures) in medium samples,"SPEV, Day 3, 0.005 μg/mL, treatment at the time of infection",3.3 lg TCID50
same,HCV titers (lg TCID50 for SPEV cell cultures) in medium samples,"SPEV, Day 3, 0.05 μg/mL, treatment 24 hours after infection",<1.0 lg TCID50
same,HCV titers (lg TCID50 for SPEV cell cultures) in medium samples,"SPEV, Day 3, 0.05 μg/mL, treatment 24 hours before infection",3.2 lg TCID50
same,HCV titers (lg TCID50 for SPEV cell cultures) in medium samples,"SPEV, Day 3, 0.05 μg/mL, treatment at the time of infection",3.3 lg TCID50
same,HCV titers (lg TCID50 for SPEV cell cultures) in medium samples,"SPEV, Day 3, 0.5 μg/mL, treatment 24 hours after infection",0 lg TCID50
same,HCV titers (lg TCID50 for SPEV cell cultures) in medium samples,"SPEV, Day 3, 0.5 μg/mL, treatment 24 hours before infection",3.2 lg TCID50
same,HCV titers (lg TCID50 for SPEV cell cultures) in medium samples,"SPEV, Day 3, 0.5 μg/mL, treatment at the time of infection",3.3 lg TCID50
same,HCV titers (lg TCID50 for SPEV cell cultures) in medium samples,"SPEV, Day 3, 5.0 μg/mL, treatment 24 hours after infection",0 lg TCID50
same,HCV titers (lg TCID50 for SPEV cell cultures) in medium samples,"SPEV, Day 3, 5.0 μg/mL, treatment 24 hours before infection",3.5 lg TCID50
same,HCV titers (lg TCID50 for SPEV cell cultures) in medium samples,"SPEV, Day 3, 5.0 μg/mL, treatment at the time of infection",2.3 lg TCID50
same,HCV titers (lg TCID50 for SPEV cell cultures) in medium samples,"SPEV, Day 3, 50.0 μg/mL, treatment 24 hours after infection",1.25 lg TCID50
same,HCV titers (lg TCID50 for SPEV cell cultures) in medium samples,"SPEV, Day 3, 50.0 μg/mL, treatment 24 hours before infection",3.5 lg TCID50
same,HCV titers (lg TCID50 for SPEV cell cultures) in medium samples,"SPEV, Day 3, 50.0 μg/mL, treatment at the time of infection",3.5 lg TCID50
same,HCV titers (lg TCID50 for SPEV cell cultures) in medium samples,"SPEV, Day 3, 500.0 μg/mL, treatment 24 hours after infection",0 lg TCID50
same,HCV titers (lg TCID50 for SPEV cell cultures) in medium samples,"SPEV, Day 3, 500.0 μg/mL, treatment 24 hours before infection",3.5 lg TCID50
same,HCV titers (lg TCID50 for SPEV cell cultures) in medium samples,"SPEV, Day 3, 500.0 μg/mL, treatment at the time of infection",3.0 lg TCID50
same,HCV titers (lg TCID50 for SPEV cell cultures) in medium samples,"SPEV, Day 4, 0.005 μg/mL, treatment 24 hours after infection",0 lg TCID50
same,HCV titers (lg TCID50 for SPEV cell cultures) in medium samples,"SPEV, Day 4, 0.005 μg/mL, treatment 24 hours before infection",3.4 lg TCID50
same,HCV titers (lg TCID50 for SPEV cell cultures) in medium samples,"SPEV, Day 4, 0.005 μg/mL, treatment at the time of infection",4.1 lg TCID50
same,HCV titers (lg TCID50 for SPEV cell cultures) in medium samples,"SPEV, Day 4, 0.05 μg/mL, treatment 24 hours after infection",1.3 lg TCID50
same,HCV titers (lg TCID50 for SPEV cell cultures) in medium samples,"SPEV, Day 4, 0.05 μg/mL, treatment 24 hours before infection",3.0 lg TCID50
same,HCV titers (lg TCID50 for SPEV cell cultures) in medium samples,"SPEV, Day 4, 0.05 μg/mL, treatment at the time of infection",4.4 lg TCID50
same,HCV titers (lg TCID50 for SPEV cell cultures) in medium samples,"SPEV, Day 4, 0.5 μg/mL, treatment 24 hours after infection",0 lg TCID50
same,HCV titers (lg TCID50 for SPEV cell cultures) in medium samples,"SPEV, Day 4, 0.5 μg/mL, treatment 24 hours before infection",3.8 lg TCID50
same,HCV titers (lg TCID50 for SPEV cell cultures) in medium samples,"SPEV, Day 4, 0.5 μg/mL, treatment at the time of infection",4.1 lg TCID50
same,HCV titers (lg TCID50 for SPEV cell cultures) in medium samples,"SPEV, Day 4, 5.0 μg/mL, treatment 24 hours after infection",0 lg TCID50
same,HCV titers (lg TCID50 for SPEV cell cultures) in medium samples,"SPEV, Day 4, 5.0 μg/mL, treatment 24 hours before infection",3.4 lg TCID50
same,HCV titers (lg TCID50 for SPEV cell cultures) in medium samples,"SPEV, Day 4, 5.0 μg/mL, treatment at the time of infection",5.5 lg TCID50
same,HCV titers (lg TCID50 for SPEV cell cultures) in medium samples,"SPEV, Day 4, 50.0 μg/mL, treatment 24 hours after infection",2.6 lg TCID50
same,HCV titers (lg TCID50 for SPEV cell cultures) in medium samples,"SPEV, Day 4, 50.0 μg/mL, treatment 24 hours before infection",3.8 lg TCID50
same,HCV titers (lg TCID50 for SPEV cell cultures) in medium samples,"SPEV, Day 4, 50.0 μg/mL, treatment at the time of infection",5.0 lg TCID50
same,HCV titers (lg TCID50 for SPEV cell cultures) in medium samples,"SPEV, Day 4, 500.0 μg/mL, treatment 24 hours after infection",0 lg TCID50
same,HCV titers (lg TCID50 for SPEV cell cultures) in medium samples,"SPEV, Day 4, 500.0 μg/mL, treatment 24 hours before infection",3.8 lg TCID50
same,HCV titers (lg TCID50 for SPEV cell cultures) in medium samples,"SPEV, Day 4, 500.0 μg/mL, treatment at the time of infection",4.2 lg TCID50
same,HCV titers (lg TCID50 for SPEV cell cultures) in medium samples,"SPEV, Day 5, 0.005 μg/mL, treatment 24 hours after infection",0 lg TCID50
same,HCV titers (lg TCID50 for SPEV cell cultures) in medium samples,"SPEV, Day 5, 0.005 μg/mL, treatment 24 hours before infection",4.5 lg TCID50
same,HCV titers (lg TCID50 for SPEV cell cultures) in medium samples,"SPEV, Day 5, 0.005 μg/mL, treatment at the time of infection",5.5 lg TCID50
same,HCV titers (lg TCID50 for SPEV cell cultures) in medium samples,"SPEV, Day 5, 0.05 μg/mL, treatment 24 hours after infection",1.8 lg TCID50
same,HCV titers (lg TCID50 for SPEV cell cultures) in medium samples,"SPEV, Day 5, 0.05 μg/mL, treatment 24 hours before infection",4.5 lg TCID50
same,HCV titers (lg TCID50 for SPEV cell cultures) in medium samples,"SPEV, Day 5, 0.05 μg/mL, treatment at the time of infection",5.0 lg TCID50
same,HCV titers (lg TCID50 for SPEV cell cultures) in medium samples,"SPEV, Day 5, 0.5 μg/mL, treatment 24 hours after infection",0 lg TCID50
same,HCV titers (lg TCID50 for SPEV cell cultures) in medium samples,"SPEV, Day 5, 0.5 μg/mL, treatment 24 hours before infection",4.5 lg TCID50
same,HCV titers (lg TCID50 for SPEV cell cultures) in medium samples,"SPEV, Day 5, 0.5 μg/mL, treatment at the time of infection",5.5 lg TCID50
same,HCV titers (lg TCID50 for SPEV cell cultures) in medium samples,"SPEV, Day 5, 5.0 μg/mL, treatment 24 hours after infection",0 lg TCID50
same,HCV titers (lg TCID50 for SPEV cell cultures) in medium samples,"SPEV, Day 5, 5.0 μg/mL, treatment 24 hours before infection",4.5 lg TCID50
same,HCV titers (lg TCID50 for SPEV cell cultures) in medium samples,"SPEV, Day 5, 5.0 μg/mL, treatment at the time of infection",5.5 lg TCID50
same,HCV titers (lg TCID50 for SPEV cell cultures) in medium samples,"SPEV, Day 5, 50.0 μg/mL, treatment 24 hours after infection",2.8 lg TCID50
same,HCV titers (lg TCID50 for SPEV cell cultures) in medium samples,"SPEV, Day 5, 50.0 μg/mL, treatment 24 hours before infection",4.5 lg TCID50
same,HCV titers (lg TCID50 for SPEV cell cultures) in medium samples,"SPEV, Day 5, 50.0 μg/mL, treatment at the time of infection",7.0 lg TCID50
same,HCV titers (lg TCID50 for SPEV cell cultures) in medium samples,"SPEV, Day 5, 500.0 μg/mL, treatment 24 hours after infection",0 lg TCID50
same,HCV titers (lg TCID50 for SPEV cell cultures) in medium samples,"SPEV, Day 5, 500.0 μg/mL, treatment 24 hours before infection",6.0 lg TCID50
same,HCV titers (lg TCID50 for SPEV cell cultures) in medium samples,"SPEV, Day 5, 500.0 μg/mL, treatment at the time of infection",5.5 lg TCID50
same,suppression of HCV infectious activity,"SPEV, Day 5 after infection and simultaneous treatment of the cells",2.2-2.7 lg TCID50/20 μg
same,suppression of the production of HCV compared with the control,"SPEV, medium collected on Day 5 after infection",2.2 lg TCID50/20 μg
same,HCV replication in SPEV cell cultures,added to the cultures 24 hours after infection,significantly suppresses
